Each block holds one compound with its values, some of them ahead of it.
How the values were obtained:
Adenosine deaminase [1] = biological target: T1, Adenosine deaminase (Bos taurus, UniProt P56658); assay: Inhibitory activity against adenosine deaminase
T1 sequence (P56658 whole entry): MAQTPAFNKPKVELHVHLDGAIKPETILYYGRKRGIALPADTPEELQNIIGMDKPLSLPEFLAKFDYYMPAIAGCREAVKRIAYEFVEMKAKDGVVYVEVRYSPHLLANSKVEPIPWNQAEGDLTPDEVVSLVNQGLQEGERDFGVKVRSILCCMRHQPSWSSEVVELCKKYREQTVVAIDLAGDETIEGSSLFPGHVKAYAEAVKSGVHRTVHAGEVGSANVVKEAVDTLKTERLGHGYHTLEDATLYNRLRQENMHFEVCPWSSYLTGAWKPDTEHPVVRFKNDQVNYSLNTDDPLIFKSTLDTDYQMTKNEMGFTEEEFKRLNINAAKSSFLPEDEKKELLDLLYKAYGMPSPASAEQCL

Adenosine deaminase [2] = biological target: T1, Adenosine deaminase; assay: Apparent binding constant against adenosine deaminase
[3] = biological target: T2, Adenosine deaminase (Bos taurus) (UniProt P56658); assay: Inhibitory activity of compound at 25 uM against adenosine deaminase
T2 sequence (whole entry): T1 sequence (P56658 whole entry)

SMILES: Nc1ccnc2c1ncn2[C@@H]1O[C@H](CO)[C@@H](O)[C@H]1O
- Ki (Adenosine deaminase [1]): 0.18 µM

- Ki (Adenosine deaminase [2]): 40 µM
SMILES: O=CNc1cn([C@@H]2O[C@H](CO)[C@@H](O)[C@H]2O)cn1

- inhibition [3]: 15%
SMILES: Nc1ncnc2c1ncn2[C@@H]1O[C@H](CO)[C@@H](O)[C@H]1O

Source: ChEMBL document CHEMBL1130184, “Effect of a chemical modification on the hydrated adenosine intermediate produced by adenosine deaminase and a model reaction for a potential mechanism of action of 5-aminoimidazole ribonucleotide carboxylase” (J Med Chem, 1997)
